Key:
PARP10 = target: T1, PARP10 (Homo sapiens, UniProt Q53GL7); test: Cellular MARylation assay (immunoblot of PARP10 auto-MARylation); assay type: cell-based; settings: 10 μM, 16 h, HeLa cells
T1 construct: made in house
T1 sequence (Q53GL7 1-1025): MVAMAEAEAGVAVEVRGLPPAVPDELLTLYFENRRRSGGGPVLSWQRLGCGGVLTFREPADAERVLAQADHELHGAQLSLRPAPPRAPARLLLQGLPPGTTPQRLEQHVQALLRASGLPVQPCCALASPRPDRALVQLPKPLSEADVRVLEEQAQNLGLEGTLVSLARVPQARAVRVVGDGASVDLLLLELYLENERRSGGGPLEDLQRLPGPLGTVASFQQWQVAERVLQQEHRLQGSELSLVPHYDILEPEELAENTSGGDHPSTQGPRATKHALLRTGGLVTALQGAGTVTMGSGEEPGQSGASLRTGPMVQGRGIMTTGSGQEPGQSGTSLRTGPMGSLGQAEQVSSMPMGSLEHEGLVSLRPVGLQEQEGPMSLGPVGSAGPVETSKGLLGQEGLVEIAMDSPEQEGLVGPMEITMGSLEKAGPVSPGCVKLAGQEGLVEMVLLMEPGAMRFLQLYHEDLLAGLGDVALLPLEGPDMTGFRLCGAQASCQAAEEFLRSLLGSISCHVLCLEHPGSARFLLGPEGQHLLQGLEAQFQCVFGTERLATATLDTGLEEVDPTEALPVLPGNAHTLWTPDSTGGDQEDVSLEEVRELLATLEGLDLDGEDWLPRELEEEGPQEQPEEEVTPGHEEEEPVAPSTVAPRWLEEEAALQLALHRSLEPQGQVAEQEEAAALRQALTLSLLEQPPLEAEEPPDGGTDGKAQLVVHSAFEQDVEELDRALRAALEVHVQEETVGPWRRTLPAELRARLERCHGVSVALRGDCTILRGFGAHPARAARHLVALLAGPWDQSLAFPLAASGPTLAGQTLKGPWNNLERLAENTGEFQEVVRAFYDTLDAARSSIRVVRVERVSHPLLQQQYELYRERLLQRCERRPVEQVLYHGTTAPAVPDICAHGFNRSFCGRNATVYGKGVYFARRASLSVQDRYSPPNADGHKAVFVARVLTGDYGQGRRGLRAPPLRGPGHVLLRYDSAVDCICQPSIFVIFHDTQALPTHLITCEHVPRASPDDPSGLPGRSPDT
Description: Cells were lysed in RIPA lysis buffer [10 mM Tris pH 7.4; 150 mM NaCl; 1% NP-40; 1% desoxycholate; 0,1% SDS; protease inhibitor cocktail (Sigma-Aldrich) and 10 μM olaparib (Selleck Chemicals)], and lysates were analyzed via SDS-PAGE and immunoblotting using specific anti-PARP10 (Eurogentec),[93] anti-MAR/PAR (Cell Signaling, E6F6A, anti-poly/Mono-ADP-ribose antibody), and anti-α-tubulin (B 5-1-2, Sigma-Aldrich) antibodies.

Stability in MeOH = assay type: physicochemical; settings: 500 μM
Description: For the stability measurements in polar solvents, each compound was dissolved at room temperature in MeOH or PBS (0.025 M, pH 7.4) up to a final concentration of 500 μM.

[1] = PAMPA, blood brain barrier (BBB) permeability; assay type: in vitro ADME; settings: brain polar lipid; for Papp at 5 h, 500 μM: pH 7.4, 5 h
Description: Each “donor solution” was prepared from a solution of the appropriate compound (DMSO, 1 mM) diluted with phosphate buffer (pH 7.4, 0.025 M) up to a final concentration of 500 μM. […] Donor solution (150 μL) was added to each well of the filter plate and to each well of the acceptor plate was added 300 μL of solution (50% DMSO in phosphate buffer). The sandwich plate was assembled and incubated for 5 h at r.t. After the incubation time, the plates were separated, and the samples were taken from both the donor and acceptor wells, and the amount of compound was measured by UV/LC–MS. All compounds were tested in three independent experiments. […] Drug concentration is estimated by using the peak area integration. Membrane retentions (%) were calculated according to the following equation [drawing 2] where r is the ratio between drug concentration in the acceptor and equilibrium concentration and D, A, and Eq represent drug concentration in the donor, acceptor, and equilibrium solution, respectively.

PARP2 = target: T2, PARP2 (Homo sapiens, UniProt Q9UGN5); test: biochemical; assay type: biochemical; settings: > = less than 50% inhibition at highest concentration; ≫ = no inhibition; read-out: PARP2 IC50
T2 construct: made in house
T2 sequence (Q9UGN5 whole entry): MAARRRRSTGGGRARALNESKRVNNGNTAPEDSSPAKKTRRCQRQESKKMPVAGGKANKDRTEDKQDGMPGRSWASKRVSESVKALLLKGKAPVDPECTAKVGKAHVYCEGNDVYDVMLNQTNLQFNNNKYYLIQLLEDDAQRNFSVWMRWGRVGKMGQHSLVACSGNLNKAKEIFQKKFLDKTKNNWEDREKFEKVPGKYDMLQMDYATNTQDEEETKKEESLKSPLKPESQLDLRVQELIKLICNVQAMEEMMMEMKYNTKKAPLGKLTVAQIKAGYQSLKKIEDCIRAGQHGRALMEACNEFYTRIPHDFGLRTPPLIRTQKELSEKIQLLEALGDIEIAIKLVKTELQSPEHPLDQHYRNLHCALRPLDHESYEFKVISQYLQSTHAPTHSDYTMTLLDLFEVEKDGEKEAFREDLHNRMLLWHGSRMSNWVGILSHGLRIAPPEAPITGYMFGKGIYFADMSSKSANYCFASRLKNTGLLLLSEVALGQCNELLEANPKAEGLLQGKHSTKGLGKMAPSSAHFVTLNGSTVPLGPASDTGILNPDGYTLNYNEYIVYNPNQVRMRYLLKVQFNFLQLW
Description: Inhibition experiments were performed using a homogenous assay measuring NAD+ consumption.[80]−[82] Reactions were carried out in quadruplicate, and IC50 curves were fitted using sigmoidal dose response curve (four variables) in GraphPad Prism version 8.02. […] Assay conditions for PARP2, TNKS2, PARP10, and PARP15 (Tables 1–3) were recently reported.[44] The conditions for the proximity-enhanced mono-ART assays (Table 4) were also reported recently.[47] PARP6 (400 nM) inhibition was measured using the standard buffer (50 mM sodium phosphate pH 7.0) for the enhanced activity assay using 500 nM NAD^+ and 18 h incubation in r.t..

Structure (SMILES)	inhibition of auto-MARylation of overexpressed PARP10 in cells (PARP10)	stab. in MeOH (Stability in MeOH) [h]	BBB RM % (retention membrane percentage) [1] [%]	Papp at 5 h, 500 μM [1] [×10⁻⁶ cm/s]	IC50 (PARP2) [µM]
Cc1ccc2c(c1)sc1nnc(N)n12 [Compound 21, 7-Methyl[1,2,4]triazolo[3,4-b][1,3]benzothiazol-3-amine]	effectively inhibited	>24	5.3	0.475	
COc1ccc(OC)c2c1sc1nnc(N)n12 [Compound 27, 5,8-Dimethoxy[1,2,4]triazolo[3,4-b][1,3]benzothiazol-3-amine]	effectively inhibited	>24	3.4	0.143	10

— publication PMC9884089 (Journal of Medicinal Chemistry, 2023)
